Test: molar heat capacity at constant pressure
Conditions: Liquid, Large sample (1 g) DSC

CC(C)O [propan-2-ol]
molar heat capacity at constant pressure [J/K/mol]
Conditions	100 kPa	20000 kPa	40000 kPa
253.15 K	129.4	126.1	125.8
258.15 K	130.6	128.3	127.3
263.15 K	132.6	130.7	129.2
268.15 K	135	133.4	131.5
273.15 K	138	136.3	134
278.15 K	141.4	139.4	136.8
283.15 K	145.1	142.6	140
288.15 K	148.9	146	143.3
293.15 K	152.9	149.6	146.9
298.15 K	157	153.3	150.7
303.15 K	161.1	157.1	154.7
308.15 K	165	161.1	159
313.15 K	168.6	165	163.3
318.15 K	171.9	169.1	167.8
323.15 K	174.9	173.2	172.4

— the NIST ThermoML archive (doi:10.1016/j.tca.2010.05.012)
